Assays:
[1] = target: T1, biotinylated truncated STAT6 (123-632)-avi (Homo sapiens, UniProt P42226); assay: biochemical
T1 sequence (P42226 123-632 limits assumed): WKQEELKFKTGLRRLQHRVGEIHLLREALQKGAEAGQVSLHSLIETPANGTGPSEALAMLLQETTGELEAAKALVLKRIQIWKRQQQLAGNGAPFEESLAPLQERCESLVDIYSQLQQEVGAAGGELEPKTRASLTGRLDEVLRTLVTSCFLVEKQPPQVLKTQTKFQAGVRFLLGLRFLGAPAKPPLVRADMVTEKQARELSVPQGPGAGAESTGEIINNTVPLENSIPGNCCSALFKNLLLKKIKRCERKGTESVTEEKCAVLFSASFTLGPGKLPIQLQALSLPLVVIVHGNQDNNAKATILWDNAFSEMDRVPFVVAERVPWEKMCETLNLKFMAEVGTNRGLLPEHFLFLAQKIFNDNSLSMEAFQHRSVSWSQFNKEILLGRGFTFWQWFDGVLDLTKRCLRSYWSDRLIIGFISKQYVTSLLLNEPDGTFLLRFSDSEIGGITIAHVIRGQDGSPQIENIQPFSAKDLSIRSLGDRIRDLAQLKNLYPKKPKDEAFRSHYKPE

STAT6 [2] = target: T2, STAT6 (Homo sapiens, UniProt P42226); assay: Phosphorylated STAT6 (pSTAT6) flow cytometry assay in human PBMC, IL-4 stimulated; format: cell-based; set-up: endogenous in cells; host or cells: human PBMC (CD19+ B cells), IL-4 stimulated; details: 1 hour compound, 1 ng/ml IL-4 15 minutes, pSTAT6 in CD19+ B cells, read-out: STAT6 IL4 pSTAT6 assay in PBMC: Average IC50
T2 sequence (P42226 1-847): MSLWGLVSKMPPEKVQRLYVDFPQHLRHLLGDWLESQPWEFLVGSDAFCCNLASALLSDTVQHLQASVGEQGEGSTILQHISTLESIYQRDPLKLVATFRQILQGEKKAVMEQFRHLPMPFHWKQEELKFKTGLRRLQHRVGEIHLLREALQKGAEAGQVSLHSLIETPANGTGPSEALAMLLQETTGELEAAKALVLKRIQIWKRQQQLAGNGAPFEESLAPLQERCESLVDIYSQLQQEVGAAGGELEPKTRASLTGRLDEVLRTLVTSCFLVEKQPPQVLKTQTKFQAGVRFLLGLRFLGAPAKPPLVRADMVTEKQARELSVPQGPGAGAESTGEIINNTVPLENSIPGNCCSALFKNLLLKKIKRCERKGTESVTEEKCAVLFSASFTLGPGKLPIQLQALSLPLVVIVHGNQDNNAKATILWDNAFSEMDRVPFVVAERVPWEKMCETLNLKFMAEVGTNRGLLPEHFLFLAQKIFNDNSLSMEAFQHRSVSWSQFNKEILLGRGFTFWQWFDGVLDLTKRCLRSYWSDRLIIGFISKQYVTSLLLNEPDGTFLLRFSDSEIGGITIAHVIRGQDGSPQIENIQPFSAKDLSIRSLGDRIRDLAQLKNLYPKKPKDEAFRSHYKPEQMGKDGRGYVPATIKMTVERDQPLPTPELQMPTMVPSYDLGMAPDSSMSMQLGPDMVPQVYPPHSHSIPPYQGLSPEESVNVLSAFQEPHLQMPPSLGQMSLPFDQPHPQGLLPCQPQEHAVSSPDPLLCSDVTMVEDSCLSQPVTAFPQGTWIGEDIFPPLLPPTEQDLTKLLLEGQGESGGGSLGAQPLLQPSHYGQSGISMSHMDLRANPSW
Description: Example 2. Phosphorylated STAT6 (pSTAT6) Flow Cytometry Assay in Human PBMC
Phosphorylation of STAT6 in human PBMC was quantitatively measured using flow cytometry technology. Human PBMC were seeded in 96-well plates with a density of 0.3 to 0.5 million cells per well in 100 μl fresh media. Compounds were then added to the assay plates with a final top concentration of up to […] in a 1:3 dilution series with total of 9 doses. The assay plates were incubated for 1 hour at 37° C. under 5% CO2. The cells were then stimulated with 1 ng/ml of IL-4 (R&D Systems, Cat #6507-IL) for 15 minutes, followed by fixation for 30 minutes at 4° C. Cells were spun down at 350 g for 5 minutes. The supernatant was removed and cells were washed once with FACS buffer. Cells were permeabilized with 90% MeOH/H2O for 30 minutes at 4° C., followed by one wash with FACS buffer. Non-specific binding were blocked with human Fc for 1 hour at 4° C., followed by one wash with FACS buffer. AF488 conjugated pSTAT6 antibody (BD Biosciences, Cat #612600, 1:100 dilution) and PE conjugated CD19 antibody (BD Biosciences, Cat #341103, 1:50 dilution) diluted in 100 μl FACS buffer was added to each well with overnight incubation at 4° C. Cells were then washed once with FACS buffer and resuspended in 200 μl of FACS buffer for flow cytometry to quantify pSTAT6 in CD19+ B cells. The data was analyzed by GraphPad Prism and the dose dependent pSTAT6 inhibition was fit using the four-parameter inhibitor vs. response nonlinear regression.

STAT6 [3] = target: T2, STAT6; assay: Phosphorylated STAT6 (pSTAT6) flow cytometry assay in human A549 cells; format: cell-based; set-up: endogenous in cells; details: read-out: STAT6 IL4 pSTAT6 assay in A549 cells: Average IC50
Description: Example 3. Phosphorylated STAT6 (pSTAT6) Flow Cytometry Assay in Human A549 Cells
Phosphorylation of STAT6 in human A549 cells was quantitatively measured using flow cytometry technology.

Structure (SMILES)	IC50 [1] [µM]	IC50 (STAT6 [2]) [µM]	IC50 (STAT6 [3]) [µM]
Cn1cccc(-c2ccc([C@H]3CCCN(C(=O)CCn4ccnn4)C3)cc2F)c1=O (single isomer, unassigned) [Compound I-7]	10 to 100	> 100	
Cn1cccc(-c2ccc([C@@H]3CCCN(C(=O)CCn4ccnn4)C3)cc2F)c1=O (single isomer, unassigned) [Compound I-320]	10 to 100	> 100	
O=C(CCn1ccnn1)N1CCC[C@@H](c2ccc(-n3ccccc3=O)c(F)c2)C1 (single isomer, unassigned) [Compound I-1293]	10 to 100		
O=C(CCn1ccnn1)N1CCC[C@H](c2ccc(-n3ccccc3=O)c(F)c2)C1 (single isomer, unassigned) [Compound I-1294]	10 to 100		
CN1CCN(c2ccc(C3=CCCN(C(=O)CCn4ccnn4)C3)cc2Cl)CC1=O [Compound I-6]	10 to 100	10 to 100	
CN(CC1CCN(c2ccc(-n3ccccc3=O)cc2F)CC1)C(Cc1cccnn1)c1ccc(CO)cc1 (stereo not drawn) [Compound I-121]	> 100	> 100	
Cc1cscc1-c1cc(CO)ccc1C(=O)N(C)CC1CCN(c2ccc(-n3ccccc3=O)cc2F)CC1 [Compound I-131]	10 to 100	> 100	
CN(CC1CCN(c2ccc(-n3ccccc3=O)cc2F)CC1)C(=O)c1ccc(CO)cc1-c1ccsc1 [Compound I-164]	1 to 10	> 100	
CN(CC1CCN(c2ccc(-n3ccccc3=O)cc2)CC1)C(=O)c1ccc(CO)cc1 [Compound I-183]	10 to 100	> 100	
CN(C)C(=O)c1ccc(C2=CCCN(C(=O)CCn3ccnn3)C2)cc1C(N)=O [Compound I-211]	10 to 100	> 100	
CN(C)C(=O)c1ccc(C2=CCCN(C(=O)CCn3ccnn3)C2)cc1O [Compound I-218]	10 to 100	> 100	
CN(C)C(=O)c1ccc(C2=CCCN(C(=O)CC3CNc4ccccc4O3)C2)c(C#N)c1 (stereo not drawn) [Compound I-223]	10 to 100	> 100	
CN(C)C(=O)c1ccc(C2=CCCN(C(=O)CCn3ccnn3)C2)cc1C#N [Compound I-230]	> 100	> 100	
CN(C)C(=O)c1ccc(N2CCC(CN(C)C(=O)c3ccc(CO)cc3)CC2)c(F)c1 [Compound I-238]	10 to 100	> 100	
CN(C)C(=O)c1ccc2ccc(C3=CCCN(C(=O)CCn4ccnn4)C3)cc2c1 [Compound I-242]	10 to 100	> 100	
COC(=O)COc1cc(C2=CCCN(C(=O)CCn3ccnn3)C2)ccc1C(=O)N(C)C [Compound I-250]	10 to 100	> 100	
CN(C)C(=O)c1ccc(C2=CCCN(C(=O)CCn3ccnn3)C2)c(O)c1 [Compound I-253]	1 to 10	> 100	
CN(C)C(=O)c1cc2cc(NC(=O)CCCn3ccnn3)ccc2o1 [Compound I-258]	10 to 100	> 100	

Structure (SMILES)	IC50 [1] [µM]	IC50 (STAT6 [2]) [µM]	IC50 (STAT6 [3]) [µM]
COc1cc(C(=O)N(C)C)ccc1C1=CCCN(C(=O)CCn2ccnn2)C1 [Compound I-260]	1 to 10	> 100	
CN(C)C(=O)c1cc2cc(NC(=O)CCn3ccnn3)ccc2o1 [Compound I-262]	10 to 100	> 100	
CN(C)C(=O)c1ccc(C2=CCCN(C(=O)CCn3ccnn3)C2)cc1 [Compound I-288]	1 to 10	> 100	
CN(C)C(=O)c1cc2cc(C3CCN(C(=O)CCn4ccnn4)C3)ccc2o1 (stereo not drawn) [Compound I-303]	10 to 100	> 100	
COc1ccccc1-c1cc(Cc2ccccn2)c(F)c(C2=CCCN(C(=O)CCn3ccnn3)C2)c1 [Compound I-1102]	0.1 to 1		0.1 to 1
CCc1ccc(-c2cc(C(=O)N3Cc4cnn(CC)c4C3)cc3cc(-c4cccc(C(=O)O)c4C)n(CC4CC4)c23)c(C)n1 [Compound I-1240]	1 to 10		
CCc1ccc(-c2cc(C(=O)N3Cc4cnn(CC)c4C3)cc3cc(-c4cc(C(=O)O)ccc4C)n(CC4CC4)c23)c(C)n1 [Compound I-1246]	1 to 10		
CNC(=O)c1ccc2c(c1)nc(-c1nc3ccc(F)cc3[nH]1)n2Cc1ccc(CN2CCOCC2)o1 [Compound I-1271]	10 to 100		
CNC(=O)c1ccc2c(c1)nc(-c1cccn1C)n2-c1ccccc1OC(F)F [Compound I-1272]	10 to 100		
CN(CC1CCN(c2ccc(-n3ccccc3=O)cc2F)CC1)C(=O)c1ccc(OC(F)F)cc1 [Compound I-1273]	10 to 100		
CN(C)C(=O)c1cnc(-c2ccc(NC(=O)CCn3ccnn3)cc2)[nH]1 [Compound I-1295]	10 to 100		
COc1ccccc1-c1cc(-n2ccccc2=O)cc(F)c1N1CCC(CN(C)C(=O)c2ccc(CO)cc2)CC1 [Compound I-1296]	10 to 100		
CN(C)C(=O)c1cc2c([nH]1)CN(C1CCCN(C(=O)CCn3ccnn3)C1)CC2 (stereo not drawn) [Compound I-1297]	10 to 100		
CN(C)C(=O)c1ccc(C2=CCCN(C(=O)CC3Oc4ccccc4NC3=O)C2)c(OC(F)(F)F)c1 (stereo not drawn) [Compound I-1298]	10 to 100		
CN(C)C(=O)c1cc2ccc(-c3cnc(CC(=O)Nc4cccc(C(N)=O)c4)s3)c(F)c2[nH]1 [Compound I-1323]	0.1 to 1		
CN(C)C(=O)c1cc2ccc(C3CCCCN(C(=O)Nc4cccc(C(N)=O)c4)C3)c(F)c2[nH]1 (stereo not drawn) [Compound I-1325]	10 to 100		
COc1ccccc1-c1cc(-c2cccc(C(=O)N(C)C)c2)c(F)c2[nH]c(C(=O)N(C)C)cc12 [Compound I-1583]	1 to 10		
O=C(CCn1ccnn1)N1CCC=C(c2ccc(-n3ccccc3=O)cc2)C1 [Compound I-1625]	1 to 10		

— US20250213586A1, “STAT6 INHIBITORS AND USES THEREOF” (Kymera Therapeutics, Inc., priority 2024, published 2025)
